# Experimental data from US8618287B2, “Derivatives of triazines and uracils, their preparation and their application in human therapeutics” (Pierre Fabre Medicament, priority 2008, dated 2013).
# Key:
# [1] = biological target: T1, Human SCD-1 (Homo sapiens, UniProt O00767); assay: Human SCD-1 enzymatic activity from microsomes of HepG2 cells (conversion of stearic acid into oleic acid); type: biochemical; conditions: 10 μM compound; microsomal fraction of HepG2 cells; relative to carrier 0.1% DMSO; read-out: HSCD-1 (HEPG2) % inh. (10 μM)
# T1 construct: adding 125 μg of microsomal fraction of HepG2 cells; host or cells: HepG2 human hepatocarcinoma cells (microsomal fraction)
# T1 sequence (O00767 1-359): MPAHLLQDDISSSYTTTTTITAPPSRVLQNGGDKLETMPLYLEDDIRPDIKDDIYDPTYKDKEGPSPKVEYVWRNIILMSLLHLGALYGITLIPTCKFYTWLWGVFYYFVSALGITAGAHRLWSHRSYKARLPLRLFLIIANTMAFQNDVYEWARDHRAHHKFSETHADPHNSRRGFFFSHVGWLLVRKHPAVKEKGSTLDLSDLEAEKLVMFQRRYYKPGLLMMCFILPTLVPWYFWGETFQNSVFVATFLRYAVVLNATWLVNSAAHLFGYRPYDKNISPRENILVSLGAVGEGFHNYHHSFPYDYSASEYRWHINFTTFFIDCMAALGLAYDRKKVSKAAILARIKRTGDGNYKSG
# Protocol: In vitro: Human SCD-1 enzymatic activity from microsomes of HepG2 cells after treatment with inhibitory compounds (inhibition %).
# Human hepatocarcinoma HepG2 cells (ATCC, HB-8065) are grown to confluence and then trypsinized. The cell pellet is taken up in 10 mM Tris buffer (pH 7.4), saccharose (250 mM) DTT (1 mM) and then the cells are lyzed by sonication. The microsomes are obtained after centrifugation at 10,000 g for 20 minutes a 4° C. followed by centrifugation of the supernatant at 100,000 g for 60 minutes a 4° C. The pellet is taken up in 10 mM Tris buffer (pH 7.4) saccharose (250 mM) at 4° C. and the microsomal proteins are assayed and stored at −196° C. (liquid nitrogen).
# The enzymatic reaction measures the conversion of stearic acid (a C18:0 fatty acid) into oleic acid (C18:1 fatty acid) by SCD-1. The enzymatic reaction is started by adding 125 μg of microsomal fraction of HepG2 cells to tubes (total reaction volume of 500 μl) containing 62 μM of stearic acid (45 μM of stearic acid and 17 μM of [^14C] stearic acid) in a phosphate buffer at 100 mM (pH 7.16) with 7.2 mM of ATP, 0.54 mM of CoA, 6 mM of MgCl2, 0.8 mM of NADH and the inhibitory compound or the carrier (0.1% DMSO). The tubes are incubated for 20 minutes at 37° C. and the enzymatic reaction is then stopped by adding KOH (12%) and saponification for 30 minutes at 80° C. After acidification (3N HCl), the fatty acids are extracted twice with ethyl ether, evaporated under nitrogen before being taken up with a methanol/dichloromethane (3:1) mixture. The product of the reaction (C18:1) is separated from the substrate of the reaction (C18:0) by HPLC (Perkin Elmer, C18 reverse phase column) coupled to a on-line radioactivity detector (FlowOne). Enzymatic activity is calculated in picomoles of stearic acid converted into oleic acid per minute and per mg of protein. For each inhibitory compound, an inhibition % is determined relatively to the reference enzymatic activity (carrier 0.1% DMSO). Sterculic acid is the reference inhibitory compound (Gomez F. E., Bauman D. E., Ntambi J. M., Fox B. G. Effects of sterculic acid on stearoyl-CoA desaturase in differentiating […] adipocytes. Biochem Biophys Res Commun. 300 316-326 (2003)).
inhibition at 10 µM [1],melting point,SMILES
98%,63 °C,"Cn1c(=O)c(N2CCC(Oc3ccccc3C(F)(F)F)CC2)nn(-c2cccnc2)c1=O [Example 81, 4-methyl-2-pyridin-3-yl-6-[4-(2-trifluoromethyl-phenoxy)-piperidin-1-yl]-2H-[1,2,4]triazine-3,5-dione]"
100%,85 °C,"Cn1c(=O)c(N2CCC(Oc3ccccc3C(F)(F)F)CC2)nn(-c2ccsc2)c1=O [Example 82, 4-methyl-2-thiophen-3-yl-6-[4-(2-trifluoromethyl-phenoxy)-piperidin-1-yl]-2H-[1,2,4]triazine-3,5-dione]"
79%,72 °C,"Cn1c(=O)c(N2CCC(Oc3ccccc3C(F)(F)F)CC2)nn(-c2ccc(C#N)cc2)c1=O [Example 83, 4-{4-methyl-3,5-dioxo-6-[4-(2-trifluoromethyl-phenoxy)-piperidin-1-yl]-4,5-dihydro-3H-[1,2,4]triazin-2-yl}-benzonitrile]"
53%,128 °C,"COc1ccccc1-n1nc(N2CCC(Oc3ccccc3C(F)(F)F)CC2)c(=O)n(C)c1=O [Example 84, 2-(2-methoxy-phenyl)-4-methyl-6-[4-(2-trifluoromethyl-phenoxy)-piperidin-1-yl]-2H-[1,2,4]triazine-3,5-dione]"
95%,150 °C,"Cn1c(=O)[nH]nc(N2CCC(Oc3ccccc3C(F)(F)F)CC2)c1=O [Example 85, 4-methyl-6-[4-(2-trifluoromethyl-phenoxy)-piperidin-1-yl]-2H-[1,2,4]triazine-3,5-dione]"
90%,65 °C,"Cn1c(=O)c(N2CCC(Oc3ccccc3C(F)(F)F)CC2)nn(C2CCCCC2=O)c1=O (stereo not shown) [Example 86, 4-methyl-2-(2-oxo-cyclohexyl)-6-[4-(2-trifluoromethyl-phenoxy)-piperidin-1-yl]-2H-[1,2,4]triazine-3,5-dione]"
48%,44 °C,"CCOCCOCCn1nc(N2CCC(Oc3ccccc3C(F)(F)F)CC2)c(=O)n(C)c1=O [Example 88, 2-[2-(2-ethoxy-ethoxy)-ethyl]-4-methyl-6-[4-(2-trifluoromethyl-phenoxy)-piperidin-1-yl]-2H-[1,2,4]triazine-3,5-dione]"
100%,112 °C,"Cn1c(=O)c(N2CCC(Oc3ccccc3C(F)(F)F)CC2)nn(CCO)c1=O [Example 89, 2-(2-hydroxy-ethyl)-4-methyl-6-[4-(2-trifluoromethyl-phenoxy)-piperidin-1-yl]-2H-[1,2,4]triazine-3,5-dione]"
